The target of the assay is T1, PI3Kδ (p110δ/p85α) (Homo sapiens, UniProt O00329).
T1 construct: purchased Millipore (Bedford, Mass.)
T1 sequence (O00329 whole entry, species assumed): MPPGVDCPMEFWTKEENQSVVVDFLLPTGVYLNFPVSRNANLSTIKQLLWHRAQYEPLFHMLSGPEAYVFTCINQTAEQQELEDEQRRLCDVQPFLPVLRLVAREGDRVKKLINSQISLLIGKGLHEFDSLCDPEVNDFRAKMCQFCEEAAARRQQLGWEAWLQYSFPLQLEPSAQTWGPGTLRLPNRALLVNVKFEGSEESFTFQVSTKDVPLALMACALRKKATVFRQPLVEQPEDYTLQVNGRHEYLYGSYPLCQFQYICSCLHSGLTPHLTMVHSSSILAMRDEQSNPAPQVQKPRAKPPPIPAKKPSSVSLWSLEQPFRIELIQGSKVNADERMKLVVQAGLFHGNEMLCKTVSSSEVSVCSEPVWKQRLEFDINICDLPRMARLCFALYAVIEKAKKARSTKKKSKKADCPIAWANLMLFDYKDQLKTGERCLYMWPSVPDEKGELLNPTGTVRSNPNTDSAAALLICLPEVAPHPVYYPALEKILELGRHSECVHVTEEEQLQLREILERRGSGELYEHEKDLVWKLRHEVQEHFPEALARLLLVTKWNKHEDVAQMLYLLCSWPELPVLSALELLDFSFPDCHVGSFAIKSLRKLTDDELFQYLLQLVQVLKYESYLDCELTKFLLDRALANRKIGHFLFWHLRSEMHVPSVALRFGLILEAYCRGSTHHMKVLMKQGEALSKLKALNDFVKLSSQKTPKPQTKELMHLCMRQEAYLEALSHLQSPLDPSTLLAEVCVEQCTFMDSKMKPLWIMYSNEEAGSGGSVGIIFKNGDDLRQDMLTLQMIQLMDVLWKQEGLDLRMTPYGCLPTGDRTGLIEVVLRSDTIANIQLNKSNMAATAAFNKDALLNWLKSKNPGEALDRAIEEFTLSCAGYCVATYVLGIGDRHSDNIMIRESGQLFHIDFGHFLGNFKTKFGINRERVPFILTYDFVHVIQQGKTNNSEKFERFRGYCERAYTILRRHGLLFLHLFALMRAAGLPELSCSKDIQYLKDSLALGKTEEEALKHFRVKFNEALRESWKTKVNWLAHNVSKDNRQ
T1 sequence (P27986 whole entry partner, species assumed): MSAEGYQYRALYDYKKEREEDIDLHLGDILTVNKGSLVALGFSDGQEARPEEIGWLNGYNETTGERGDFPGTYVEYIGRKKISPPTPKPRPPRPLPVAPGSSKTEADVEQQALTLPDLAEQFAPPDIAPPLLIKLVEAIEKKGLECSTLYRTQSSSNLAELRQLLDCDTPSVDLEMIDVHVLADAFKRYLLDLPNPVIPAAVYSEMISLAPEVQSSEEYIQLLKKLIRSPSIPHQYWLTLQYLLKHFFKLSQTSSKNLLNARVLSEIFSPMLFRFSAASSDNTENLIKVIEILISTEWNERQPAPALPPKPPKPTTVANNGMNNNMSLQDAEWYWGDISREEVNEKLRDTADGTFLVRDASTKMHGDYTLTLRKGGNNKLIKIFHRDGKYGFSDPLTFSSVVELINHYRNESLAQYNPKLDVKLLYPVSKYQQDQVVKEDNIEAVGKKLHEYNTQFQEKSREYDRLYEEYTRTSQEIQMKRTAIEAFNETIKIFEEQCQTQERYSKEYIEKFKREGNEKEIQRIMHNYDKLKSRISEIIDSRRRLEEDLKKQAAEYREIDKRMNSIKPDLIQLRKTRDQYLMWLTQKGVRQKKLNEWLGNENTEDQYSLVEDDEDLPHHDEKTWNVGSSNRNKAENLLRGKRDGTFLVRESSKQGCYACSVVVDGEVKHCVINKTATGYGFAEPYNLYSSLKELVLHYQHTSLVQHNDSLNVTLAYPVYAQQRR
The assay is described as follows: PI3Kδ scintillation proximity assay. The format is biochemical. Conditions: 20 μM ATP, 4 nM PI3Kδ. From the text:
Example A: PI3Kδ Scintillation Proximity Assay
Materials: [γ-^33P]ATP (10 mCi/mL) was purchased from Perkin-Elmer (Waltham, Mass.). Lipid kinase substrate, D-myo-Phosphatidylinositol 4,5-bisphosphate (PtdIns(4,5)P2)D (+)-sn-1,2-di-O-octanoylglyceryl, 3-O-phospho linked (PIP2), CAS 204858-53-7, was purchased from Echelon Biosciences (Salt Lake City, Utah). PI3Kδ (p110δ/p85α) was purchased from Millipore (Bedford, Mass.). ATP, MgCl2, DTT, EDTA, MOPS and CHAPS were purchased from Sigma-Aldrich (St. Louis, Mo.). Wheat Germ Agglutinin (WGA) YSi SPA Scintillation Beads was purchased from GE healthcare life sciences (Piscataway, N.J.).
The kinase reaction was conducted in polystyrene 384-well matrix white plate from Thermo Fisher Scientific in a final volume of 25 μL. Inhibitors were first diluted serially in DMSO and added to the plate wells before the addition of other reaction components. The final concentration of DMSO in the assay was 0.5%. The PI3K assays were carried out at room temperature in 20 mM MOPS, pH 6.7, 10 mM MgCl2, 5 mM DTT and CHAPS 0.03%. Reactions were initiated by the addition of ATP, the final reaction mixture consisted of 20 μM PIP2,20 μM ATP, 0.2 μCi [γ-^33P] ATP, 4 nM PI3Kδ. Reactions were incubated for 210 minutes and terminated by the addition of 40 μL SPA beads suspended in quench buffer: 150 mM potassium phosphate pH 8.0, 20% glycerol. 25 mM EDTA, 400 µM ATP. The final concentration of SPA beads is 1.0 mg/mL. After the plate sealing, plates were shaken overnight at room temperature and centrifuged at 1800 rpm for 10 minutes, the radioactivity of the product was determined by scintillation counting on Topcount (Perkin-Elmer). IC50 determination was performed by fitting the curve of percent control activity versus the log of the inhibitor concentration using the GraphPad Prism 3.0 software.
For the compound “1-{3′-chloro-3-fluoro-6′-methoxy-2′-methyl-5′-[1-(9H-purin-6-ylamino)ethyl]biphenyl-4-yl]carbonyl)piperidin-4-ol [Example 69]”, the concentration for half-maximal inhibition (IC50) was < 50 nM.
On to `COc1c(C(C)Nc2ncnc3[nH]cnc23)cc(Cl)c(C)c1-c1cnn(C2(CC#N)CC(C#N)C2)c1` (single isomer, unassigned) [Example 54, 3-(4-{3-chloro-6-methoxy-2-methyl-5-[1-(9H-purin-6-ylamino)ethyl]phenyl}-1H-pyrazol-1-yl)-3-(cyanomethyl)cyclobutanecarbonitrile], for which the IC50 is < 50 nM.
In the case of `COc1cncc(-c2c(C)c(Cl)cc(C(C)Nc3ncnc4[nH]cnc34)c2OC)c1` (single isomer, unassigned) [Example 113, N-{1-[5-Chloro-2-methoxy-3-(5-methoxypyridin-3-yl)-4-methylphenyl]ethyl}-9H-purin-6-amine] it was < 50 nM.
For `COc1c(C(C)Nc2ncnc3[nH]cnc23)cc(Cl)c(C)c1C1CNC(=O)C1` (single isomer, unassigned) [Example 192, 4-{3-chloro-6-methoxy-2-methyl-5-[1-(9H-purin-6-ylamino)ethyl]phenyl}pyrrolidin-2-one], the IC50 is < 50 nM.
With `COc1c(C(C)Nc2ncnc3[nH]cnc23)cc(Cl)c(C)c1C1CC(=O)N(C)C1` (single isomer, unassigned) [Example 193, 4-{3-chloro-6-methoxy-2-methyl-5-[1-(9H-purin-6-ylamino)ethyl]phenyl}-1-methylpyrrolidin-2-one], the IC50 is < 50 nM.
In the case of `CCOc1c(C(C)Nc2ncnc3[nH]cnc23)cc(Cl)c(C#N)c1C1CN(C(C)C)C1` (single isomer, unassigned) [Example 214, 6-Chloro-3-ethoxy-2-(1-isopropylazetidin-3-yl)-4-[1-(9H-purin-6-ylamino)ethyl]benzonitrile bis(trifluoroacetate)] it was < 50 nM; in that of `CC(Nc1ncnc2[nH]cnc12)c1cc(Cl)c(CC#N)c(C#N)c1-c1cccc(F)c1` (stereo not shown) [Example 4, 4-Chloro-3-(cyanomethyl)-3′-fluoro-6-[1-(9H-purin-6-ylamino)ethyl]biphenyl-2-carbonitrile], 500 to 1000 nM; in that of `COc1c(C(C)Nc2ncnc3[nH]cnc23)cc(Cl)c(C)c1-c1cncc(C)c1` (stereo not shown) [Example 55, N-{1-[5-chloro-2-methoxy-4-methyl-3-(5-methylpyridin-3-yl)phenyl]ethyl}-9H-purin-6-amine], < 50 nM.
In the case of `COc1c(C(C)Nc2ncnc3[nH]cnc23)cc(Cl)c(C)c1-c1ccc(N)nc1` (stereo not shown) [Example 57, N-{1-[3-(6-aminopyridin-3-yl)-5-chloro-2-methoxy-4-methylphenyl]ethyl}-9H-purin-6-amine] it was < 50 nM; in that of `COc1c(C(C)Nc2ncnc3[nH]cnc23)cc(Cl)c(C)c1-c1ccc(C#N)nc1` (stereo not shown) [Example 58, 5-{3-chloro-6-methoxy-2-methyl-5-[1-(9H-purin-6-ylamino)ethyl]phenyl}pyridine-2-carbonitrile], 50 to 100 nM.
In the case of `COc1c(C(C)Nc2ncnc3[nH]cnc23)cc(Cl)c(C)c1-c1ccc(OC(C)C)nc1` (stereo not shown) [Example 59, N-{1-[5-chloro-3-(6-isopropoxypyridin-3-yl)-2-methoxy-4-methylphenyl]ethyl}-9H-purin-6-amine] it was 100 to 250 nM; in that of `COc1c(C(C)Nc2ncnc3[nH]cnc23)cc(Cl)c(C)c1-c1ccc(F)c(C(N)=O)c1` (stereo not shown) [Example 61, 3′-Chloro-4-fluoro-6′-methoxy-2′-methyl-5′-[1-(9H-purin-6-ylamino)ethyl]biphenyl-3-carboxamide], < 50 nM; in that of `COc1c(C(C)Nc2ncnc3[nH]cnc23)cc(Cl)c(C)c1-c1ccc(C(N)=O)c(F)c1` (stereo not shown) [Example 62, 3′-Chloro-3-fluoro-6′-methoxy-2′-methyl-5′-[1-(9H-purin-6-ylamino)ethyl]biphenyl-4-carboxamide], < 50 nM.

The values above are taken from patent publication US9815839B2, “N-(1-(substituted-phenyl)ethyl)-9H-purin-6-amines as PI3K inhibitors” (Incyte Corporation, priority 2010, dated 2017).
